Tested on: not listed separately
Assay: Cytotoxicity against human UO31 cells assessed as growth level at 10 uM after 48 hrs by SRB assay
Format: functional, UO-31
Details: not given
`C=C1CC[C@@H]2[C@](C)(COC(C)=O)[C@H](OC(C)=O)CC[C@@]2(C)[C@@H]1CC(NCCCC)C1=CCOC1=O` (mixture of isomers) showed an Activity of 84%.

Tested on: not listed separately
Assay: Cytotoxicity against human SF295 cells assessed as growth inhibition at 10 uM after 48 hrs by SRB assay
Format: functional
Details: SF-295, 48 h, read-out: GI
With `C=C1CC[C@@H]2[C@](C)(COC(C)=O)[C@H](OC(C)=O)CC[C@@]2(C)[C@@H]1CC(NCCCC)C1=CCOC1=O` (mixture of isomers) the inhibition of growth at 10 µM was 5.72%.

Tested on: not listed separately
Assay: Cytotoxicity against human HOP92 cells assessed as growth level at 10 uM after 48 hrs by SRB assay
Format: functional, HOP-92
Details: not given
In the case of `C=C1CC[C@@H]2[C@](C)(COC(C)=O)[C@H](OC(C)=O)CC[C@@]2(C)[C@@H]1CC(NCCCC)C1=CCOC1=O` (mixture of isomers), the Activity is reported as 53.32%.

Tested on: NCI-H226
Assay: Cytotoxicity against human NCI-H226 cells assessed as growth level at 10 uM after 48 hrs by SRB assay
Format: functional
Details: not given
Compound `C=C1CC[C@@H]2[C@](C)(COC(C)=O)[C@H](OC(C)=O)CC[C@@]2(C)[C@@H]1CC(NCCCC)C1=CCOC1=O` (mixture of isomers) has an Activity of 75.67%.

Tested on: SK-MEL-28
Assay: Cytotoxicity against human SK-MEL-28 cells assessed as growth level at 10 uM after 48 hrs by SRB assay
Format: functional
Details: not given
Work on `C=C1CC[C@@H]2[C@](C)(COC(C)=O)[C@H](OC(C)=O)CC[C@@]2(C)[C@@H]1CC(NCCCC)C1=CCOC1=O` (mixture of isomers) yielded an Activity of 98.09%.

Tested on: not listed separately
Assay: Cytotoxicity against human UO31 cells assessed as growth inhibition at 10 uM after 48 hrs by SRB assay
Format: functional
Details: UO-31, 48 h, read-out: GI
For `C=C1CC[C@@H]2[C@](C)(COC(C)=O)[C@H](OC(C)=O)CC[C@@]2(C)[C@@H]1CC(NCCCC)C1=CCOC1=O` (mixture of isomers), the inhibition of growth at 10 µM was 16%.

Tested on: not listed separately
Assay: Cytotoxicity against human SNB19 cells assessed as growth level at 10 uM after 48 hrs by SRB assay
Format: functional, SNB-19
Details: not given
Work on `C=C1CC[C@@H]2[C@](C)(COC(C)=O)[C@H](OC(C)=O)CC[C@@]2(C)[C@@H]1CC(NCCCC)C1=CCOC1=O` (mixture of isomers) yielded an Activity of 87.32%.

Tested on: not listed separately
Assay: Cytotoxicity against human UACC62 cells assessed as growth inhibition at 10 uM after 48 hrs by SRB assay
Format: functional
Details: UACC-62, 48 h, read-out: GI
`C=C1CC[C@@H]2[C@](C)(COC(C)=O)[C@H](OC(C)=O)CC[C@@]2(C)[C@@H]1CC(NCCCC)C1=CCOC1=O` (mixture of isomers) gave an inhibition of growth at 10 µM of 27.6%.

Tested on: CCRF-CEM
Assay: Cytotoxicity against human CCRF-CEM cells assessed as growth inhibition at 10 uM after 48 hrs by SRB assay
Format: functional
Details: read-out: GI
Work on `C=C1CC[C@@H]2[C@](C)(COC(C)=O)[C@H](OC(C)=O)CC[C@@]2(C)[C@@H]1CC(NCCCC)C1=CCOC1=O` (mixture of isomers) yielded an inhibition of growth at 10 µM of 19.3%.

Tested on: HT-29
Assay: Cytotoxicity against human HT-29 cells assessed as growth inhibition at 10 uM after 48 hrs by SRB assay
Format: functional
Details: HT-29, 48 h, read-out: GI
With `C=C1CC[C@@H]2[C@](C)(COC(C)=O)[C@H](OC(C)=O)CC[C@@]2(C)[C@@H]1CC(NCCCC)C1=CCOC1=O` (mixture of isomers) the inhibition of growth at 10 µM was 17.4%.

Tested on: not listed separately
Assay: Cytotoxicity against human PC3 cells assessed as growth inhibition at 10 uM after 48 hrs by SRB assay
Format: functional
Details: PC-3, 48 h, read-out: GI
Compound `C=C1CC[C@@H]2[C@](C)(COC(C)=O)[C@H](OC(C)=O)CC[C@@]2(C)[C@@H]1CC(NCCCC)C1=CCOC1=O` (mixture of isomers) has an inhibition of growth at 10 µM of 48.8%.

Tested on: ACHN
Assay: Cytotoxicity against human ACHN cells assessed as growth inhibition at 10 uM after 48 hrs by SRB assay
Format: functional
Details: read-out: GI
For `C=C1CC[C@@H]2[C@](C)(COC(C)=O)[C@H](OC(C)=O)CC[C@@]2(C)[C@@H]1CC(NCCCC)C1=CCOC1=O` (mixture of isomers), the inhibition of growth at 10 µM was 0.58%.

Tested on: not listed separately
Assay: Cytotoxicity against human UACC62 cells assessed as growth level at 10 uM after 48 hrs by SRB assay
Format: functional, UACC-62
Details: not given
With `C=C1CC[C@@H]2[C@](C)(COC(C)=O)[C@H](OC(C)=O)CC[C@@]2(C)[C@@H]1CC(NCCCC)C1=CCOC1=O` (mixture of isomers) the Activity was 72.38%.

Tested on: not listed separately
Assay: Cytotoxicity against human COLO205 cells assessed as growth level at 10 uM after 48 hrs by SRB assay
Format: functional, COLO 205
Details: not given
Compound `C=C1CC[C@@H]2[C@](C)(COC(C)=O)[C@H](OC(C)=O)CC[C@@]2(C)[C@@H]1CC(NCCCC)C1=CCOC1=O` (mixture of isomers) has an Activity of 82.08%.

Tested on: not listed separately
Assay: Cytotoxicity against human NCI-ADR-RES cells assessed as growth inhibition at 10 uM after 48 hrs by SRB assay
Format: functional
Details: read-out: GI
`C=C1CC[C@@H]2[C@](C)(COC(C)=O)[C@H](OC(C)=O)CC[C@@]2(C)[C@@H]1CC(NCCCC)C1=CCOC1=O` (mixture of isomers) showed an inhibition of growth at 10 µM of 12.7%.

Tested on: M14
Assay: Cytotoxicity against human M14 cells assessed as growth inhibition at 10 uM after 48 hrs by SRB assay
Format: functional
Details: M14, 48 h, read-out: GI
With `C=C1CC[C@@H]2[C@](C)(COC(C)=O)[C@H](OC(C)=O)CC[C@@]2(C)[C@@H]1CC(NCCCC)C1=CCOC1=O` (mixture of isomers) the inhibition of growth at 10 µM was 7.25%.

Tested on: MCF7
Assay: Cytotoxicity against human MCF7 cells assessed as growth level at 10 uM after 48 hrs by SRB assay
Format: functional
Details: not given
Compound `C=C1CC[C@@H]2[C@](C)(COC(C)=O)[C@H](OC(C)=O)CC[C@@]2(C)[C@@H]1CC(NCCCC)C1=CCOC1=O` (mixture of isomers) has an Activity of 82.86%.

Tested on: A498
Assay: Cytotoxicity against human A498 cells assessed as growth inhibition at 10 uM after 48 hrs by SRB assay
Format: functional
Details: A498, 48 h, read-out: GI
Work on `C=C1CC[C@@H]2[C@](C)(COC(C)=O)[C@H](OC(C)=O)CC[C@@]2(C)[C@@H]1CC(NCCCC)C1=CCOC1=O` (mixture of isomers) yielded an inhibition of growth at 10 µM of 24.6%.

Tested on: M14
Assay: Cytotoxicity against human M14 cells assessed as growth level at 10 uM after 48 hrs by SRB assay
Format: functional
Details: not given
For `C=C1CC[C@@H]2[C@](C)(COC(C)=O)[C@H](OC(C)=O)CC[C@@]2(C)[C@@H]1CC(NCCCC)C1=CCOC1=O` (mixture of isomers), the Activity was 92.75%.

Tested on: SN12C
Assay: Cytotoxicity against human SN12C cells assessed as growth inhibition at 10 uM after 48 hrs by SRB assay
Format: functional
Details: read-out: GI
`C=C1CC[C@@H]2[C@](C)(COC(C)=O)[C@H](OC(C)=O)CC[C@@]2(C)[C@@H]1CC(NCCCC)C1=CCOC1=O` (mixture of isomers) showed an inhibition of growth at 10 µM of 10.2%.

Tested on: not listed separately
Assay: Cytotoxicity against human SF268 cells assessed as growth inhibition at 10 uM after 48 hrs by SRB assay
Format: functional
Details: SF-268, 48 h, read-out: GI
Work on `C=C1CC[C@@H]2[C@](C)(COC(C)=O)[C@H](OC(C)=O)CC[C@@]2(C)[C@@H]1CC(NCCCC)C1=CCOC1=O` (mixture of isomers) yielded an inhibition of growth at 10 µM of 23%.

Tested on: not listed separately
Assay: Cytotoxicity against human BT549 cells assessed as growth level at 10 uM after 48 hrs by SRB assay
Format: functional, BT-549
Details: not given
With `C=C1CC[C@@H]2[C@](C)(COC(C)=O)[C@H](OC(C)=O)CC[C@@]2(C)[C@@H]1CC(NCCCC)C1=CCOC1=O` (mixture of isomers) the Activity was 89.2%.

Tested on: not listed separately
Assay: Cytotoxicity against human OVCAR4 cells assessed as growth inhibition at 10 uM after 48 hrs by SRB assay
Format: functional
Details: OVCAR-4, 48 h, read-out: GI
For `C=C1CC[C@@H]2[C@](C)(COC(C)=O)[C@H](OC(C)=O)CC[C@@]2(C)[C@@H]1CC(NCCCC)C1=CCOC1=O` (mixture of isomers), the inhibition of growth at 10 µM was 14.3%.

Tested on: NCI-H322M
Assay: Cytotoxicity against human NCI-H322M cells assessed as growth level at 10 uM after 48 hrs by SRB assay
Format: functional
Details: not given
With `C=C1CC[C@@H]2[C@](C)(COC(C)=O)[C@H](OC(C)=O)CC[C@@]2(C)[C@@H]1CC(NCCCC)C1=CCOC1=O` (mixture of isomers) the Activity was 96.22%.

Tested on: not listed separately
Assay: Cytotoxicity against human TK10 cells assessed as growth inhibition at 10 uM after 48 hrs by SRB assay
Format: functional
Details: TK-10, 48 h, read-out: GI
`C=C1CC[C@@H]2[C@](C)(COC(C)=O)[C@H](OC(C)=O)CC[C@@]2(C)[C@@H]1CC(NCCCC)C1=CCOC1=O` (mixture of isomers) gave an inhibition of growth at 10 µM of 0.94%.

Tested on: A549
Assay: Cytotoxicity against human A549 cells assessed as growth inhibition at 10 uM after 48 hrs by SRB assay
Format: functional
Details: A549, 48 h, read-out: GI
In the case of `C=C1CC[C@@H]2[C@](C)(COC(C)=O)[C@H](OC(C)=O)CC[C@@]2(C)[C@@H]1CC(NCCCC)C1=CCOC1=O` (mixture of isomers), the inhibition of growth at 10 µM is reported as 18.8%.

Tested on: not listed separately
Assay: Cytotoxicity against human RPMI8226 cells assessed as growth inhibition at 10 uM after 48 hrs by SRB assay
Format: functional
Details: RPMI-8226, 48 h, read-out: GI
In the case of `C=C1CC[C@@H]2[C@](C)(COC(C)=O)[C@H](OC(C)=O)CC[C@@]2(C)[C@@H]1CC(NCCCC)C1=CCOC1=O` (mixture of isomers), the inhibition of growth at 10 µM is reported as 39.5%.

Tested on: NCI-H322M
Assay: Cytotoxicity against human NCI-H322M cells assessed as growth inhibition at 10 uM after 48 hrs by SRB assay
Format: functional
Details: read-out: GI
For `C=C1CC[C@@H]2[C@](C)(COC(C)=O)[C@H](OC(C)=O)CC[C@@]2(C)[C@@H]1CC(NCCCC)C1=CCOC1=O` (mixture of isomers), the inhibition of growth at 10 µM was 3.78%.

Reference: ChEMBL document CHEMBL3734705, “Synthesis and in vitro cytotoxicity of novel C-12 substituted-14-deoxy-andrographolide derivatives as potent anti-cancer agents” (2015)
